The text below walks through data of patent publication US8962793B2, “ErbB interface peptidomimetics and methods of use thereof” (The Trustees of the University of Pennsylvania, priority 2001, dated 2015).

Test [1] addresses T1, erbB3-erbB3 homomerization (Homo sapiens, UniProt P21860).
T1 construct: the ectodomains of erbB receptors were immobilized on the surface chip; erbB3: gift of Dr. Mark A. Lemmon
The test is described as follows: SPR inhibition of HRGβ1-induced binding of ErbB3 to immobilized ErbB3. Conditions: peptide 10 μm, ErbB3 300 nm, HRGβ1 5 μM. How it is done: (§1) The effect of cysteine-knot mimetics on receptor self-associations, was examined using a Biacore assay in which the ectodomains of erbB receptors were immobilized on the surface chip and the ectodomain of erbB3 was injected at 300 nM concentrations either alone or in the presence of 5 μM hereglunin HRGβ1.
(§2) The effect of the erbB peptides on heregulin-induced receptor self-associations was studied by preinjecting them at 10 μM followed by injection of erbB3-HRGβ1 (FIG. 4; 1B, 2B, 3B).
(§3) Binding experiments were performed with the surface plasmon resonance based biosensor instrument Biacore 3000 (Biacore AB, Uppsala, Sweden), at 25° C. […] (erbB2) and Dr. Mark A. Lemmon, Department of Biochemistry and Biophysics, University of Pennsylvania School of Medicine (erbB1 and erbB3). Immobilization of the erbB receptors in the sensor surface was performed following the standard amine coupling procedure according to manufacturer's instructions. Briefly, 35 μl of a solution containing 0.2 M N-ethyl-N′-(dimethylaminopropyl) carbodiimide (EDC) and 0.05 M N-hydroxysuccinimide (NHS), were injected at a flow rate of 5 μl/min to activate carboxyl groups on the sensor chip surface. Receptors (40 ng/ml in 10 mM NaOAc buffer, pH 5.0) were flowed over the chip surface at a flow rate of 20 μl/min until the desired level bound protein was reached. Unreacted protein was washed out and unreacted activated groups were blocked by the injection of 35 μl of 1 M ethanolamine at 5 μl/min. […] A reference surface was generated simultaneously under the same conditions but without receptor injection and used as a blank to correct for instrument and buffer artifacts. Peptides were injected at variable concentrations at 20 μl/min flow rate and binding to the receptors immobilized on the chip was monitored in real time. Each sensorgram consists of an association phase (first 240 s), reflecting binding of the injected peptide to the receptor, followed by a dissociation phase (300 s), during which the running buffer is passed over the chip and the bound peptide is being washed off the receptor surface.

Test [2] concerns the target T2, ErbB2 (Homo sapiens, UniProt P04626).
T2 construct: provided by Dr. Che Law, Xcyte Therapeutics, Seattle
As to the kind of experiment: Surface plasmon resonance (Biacore) binding to immobilized ErbB2 extracellular domain. Conditions: immobilized extracellular domain, surface plasmon resonance; read-out: KD (μM) ErbB2. The protocol:
The designed erbB peptides were tested for binding to erbB receptors using surface plasmon resonance (Biacore) technology (described supra) using soluble erbB-1 and erbB-3. The response was plotted in real time in the form of sensorgram curves. Dissociation constants (Kd) were determined as described (Park, et al. 2000, Nat. Biotechnol. 18:194-198).
A sensorgram for binding of B2-S22-APE peptide to erbB receptors immobilized on the sensor chip was performed.
as §3

Test [3] concerns the target T3, erbB3-erbB2 heteromerization (Homo sapiens, UniProt P04626).
T3 construct: the ectodomains of erbB receptors were immobilized on the surface chip; erbB2: Dr. Che Law, Xcyte Therapeutics; erbB3: Dr. Mark A. Lemmon
The test is described as follows: SPR inhibition of HRGβ1-induced binding of ErbB3 to immobilized ErbB2. Conditions: peptide 10 μm, ErbB3 300 nm, HRGβ1 5 μM. How it is done:
as §1, §2, §3

For test [4], the target named is T4, ErbB3 (Homo sapiens, UniProt P21860).
T4 construct: gift of Dr. Mark A. Lemmon, University of Pennsylvania School of Medicine
As to the kind of experiment: Surface plasmon resonance (Biacore) binding to immobilized ErbB3 extracellular domain. Conditions: immobilized extracellular domain, surface plasmon resonance; read-out: KD (μM) ErbB3. How it is done:
(§4) The designed erbB peptides were tested for binding to erbB receptors using surface plasmon resonance (Biacore) technology (described supra) using soluble erbB-1 and erbB-3. The response was plotted in real time in the form of sensorgram curves.
as §3

Test [5] concerns the target T5, erbB2-erbB4 receptor heteromerization in the 32D-E2/E4 cells (Homo sapiens, UniProt P04626).
T5 construct: dimerization of native full-length ErbB receptors was studied using the 32D cell lines transfected with different erbB receptors; host or cells: 32D cells (32D-E2/E4)
As to the kind of experiment: Chemical cross-linking and immunoblotting of heregulin-induced receptor dimerization in 32D-E2/E4 cells. Conditions: dose-dependent, FIG. 5B, read-out: apparent IC50 of inhibition of receptor dimerization. In kind it is cell-based. How it is done: Effect of the ErbB peptides on biochemically defined dimerization of native full-length ErbB receptors was studied using the 32D cell lines transfected with different erbB receptors. 32D-E1 cells were transfected with erbB1; 32D-E2/E3 with erbB2 and erbB3; and 32D-E2/E4 with erbB2 and erbB4.
32D cell transfectants with ErbB receptors (gift from Dr. Jacalyn H. Pierce, National Cancer Institute) were grown in RPMI 1640, 10% FBS and 5% WEHI medium (GenoQuest, Interlukin-3 supplement) and respective antibiotics, i.e. 32D-E1 (gptr), 32D-E2/E3 (neor/gptr) and 32D-E2/E4 (neor/gptr) (29). The WEHI medium was withdrawn and cells were pre-incubated with ErbB peptides for 2 hours at 37° C. before adding 10 μg/ml EGF (for 32D-E1, Collaborative Biomedical Products) or 10 μg/ml HRG 1 (for 32D-E2/E3 or 32D E2/E4, R&D Systems) and further incubated at 37° C. for 24-48 hours. The cell viability was detected with propidium iodide staining followed by flow cytometry quantification. For the cross-linking analysis, approximately 2×10^6 cells were suspended in RPMI 1640 medium containing 0.1% BSA and 10 mM HEPES, and pre-incubated with ErbB peptides for 2 hours at 37° C. before adding 10 μg/ml EGF or 10 μg/ml Heregulin-β1 EGF domain and further incubated at 37° C. for 10-15 minutes. Cells were rinsed with PBS and incubated in 2 mM BS^3/PBS at 4° C. for 45 minutes. […]

Test [6] addresses T6, ErbB1 (Homo sapiens, UniProt P00533).
T6 construct: gift of Dr. Mark A. Lemmon, University of Pennsylvania School of Medicine
As to the kind of experiment: Surface plasmon resonance (Biacore) binding to immobilized ErbB1 extracellular domain. Conditions: immobilized extracellular domain, surface plasmon resonance; read-out: KD (μM) ErbB1. The protocol: as §4, §3

Test [7] concerns the target T7, erbB3-erbB1 heteromerization (Homo sapiens, UniProt P00533).
T7 construct: the ectodomains of erbB receptors were immobilized on the surface chip; erbB1 and erbB3: gift of Dr. Mark A. Lemmon
The test is described as follows: SPR inhibition of HRGβ1-induced binding of ErbB3 to immobilized ErbB1. Conditions: peptide 10 μm, ErbB3 300 nm, HRGβ1 5 μM. The protocol:
as §1, §2, §3

Bridge positions count the residues as written; N and C are the ends. Peptide text beside a SMILES is read from it.

T4 sequence (P21860 20-643 limits assumed): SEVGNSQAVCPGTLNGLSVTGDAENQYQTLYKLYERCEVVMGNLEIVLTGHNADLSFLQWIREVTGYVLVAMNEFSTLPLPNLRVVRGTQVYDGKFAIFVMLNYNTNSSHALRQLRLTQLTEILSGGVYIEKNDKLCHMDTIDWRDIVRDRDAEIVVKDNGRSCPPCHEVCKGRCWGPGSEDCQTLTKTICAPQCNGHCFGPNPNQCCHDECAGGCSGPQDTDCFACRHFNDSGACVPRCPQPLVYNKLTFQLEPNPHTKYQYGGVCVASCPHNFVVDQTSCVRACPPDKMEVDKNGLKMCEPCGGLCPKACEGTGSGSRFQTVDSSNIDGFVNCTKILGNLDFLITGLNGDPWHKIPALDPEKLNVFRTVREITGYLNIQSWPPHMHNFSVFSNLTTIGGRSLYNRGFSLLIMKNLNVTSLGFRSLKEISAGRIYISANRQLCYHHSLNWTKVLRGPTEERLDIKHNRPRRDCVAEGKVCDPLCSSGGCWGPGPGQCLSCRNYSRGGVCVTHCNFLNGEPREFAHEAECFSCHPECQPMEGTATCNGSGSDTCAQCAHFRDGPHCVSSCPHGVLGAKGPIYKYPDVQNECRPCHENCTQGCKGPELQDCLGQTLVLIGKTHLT
T1 sequence (P21860 20-643 limits assumed): as above
T7 sequence (P00533 25-645 limits assumed, one chain of several): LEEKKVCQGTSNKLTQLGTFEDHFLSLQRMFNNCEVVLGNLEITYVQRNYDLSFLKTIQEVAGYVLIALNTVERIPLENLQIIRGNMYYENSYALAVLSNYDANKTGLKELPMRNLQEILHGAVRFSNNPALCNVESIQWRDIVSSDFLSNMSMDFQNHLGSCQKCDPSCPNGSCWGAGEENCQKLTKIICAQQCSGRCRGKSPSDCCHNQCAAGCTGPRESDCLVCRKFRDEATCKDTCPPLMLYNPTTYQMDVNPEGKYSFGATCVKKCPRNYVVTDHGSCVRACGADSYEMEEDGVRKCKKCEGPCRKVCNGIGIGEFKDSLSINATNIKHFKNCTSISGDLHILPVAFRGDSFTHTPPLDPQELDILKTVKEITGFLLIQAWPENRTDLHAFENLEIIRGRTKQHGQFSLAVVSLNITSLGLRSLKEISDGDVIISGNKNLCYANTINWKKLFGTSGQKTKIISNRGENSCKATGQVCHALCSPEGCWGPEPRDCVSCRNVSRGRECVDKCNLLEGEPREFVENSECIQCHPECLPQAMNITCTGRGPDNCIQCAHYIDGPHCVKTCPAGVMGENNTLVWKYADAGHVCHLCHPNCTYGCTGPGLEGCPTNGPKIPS
T6 sequence (P00533 25-645 limits assumed): as the sequence (P00533 25-645 limits assumed, one chain of several) above
T2 sequence (P04626 23-652 limits assumed): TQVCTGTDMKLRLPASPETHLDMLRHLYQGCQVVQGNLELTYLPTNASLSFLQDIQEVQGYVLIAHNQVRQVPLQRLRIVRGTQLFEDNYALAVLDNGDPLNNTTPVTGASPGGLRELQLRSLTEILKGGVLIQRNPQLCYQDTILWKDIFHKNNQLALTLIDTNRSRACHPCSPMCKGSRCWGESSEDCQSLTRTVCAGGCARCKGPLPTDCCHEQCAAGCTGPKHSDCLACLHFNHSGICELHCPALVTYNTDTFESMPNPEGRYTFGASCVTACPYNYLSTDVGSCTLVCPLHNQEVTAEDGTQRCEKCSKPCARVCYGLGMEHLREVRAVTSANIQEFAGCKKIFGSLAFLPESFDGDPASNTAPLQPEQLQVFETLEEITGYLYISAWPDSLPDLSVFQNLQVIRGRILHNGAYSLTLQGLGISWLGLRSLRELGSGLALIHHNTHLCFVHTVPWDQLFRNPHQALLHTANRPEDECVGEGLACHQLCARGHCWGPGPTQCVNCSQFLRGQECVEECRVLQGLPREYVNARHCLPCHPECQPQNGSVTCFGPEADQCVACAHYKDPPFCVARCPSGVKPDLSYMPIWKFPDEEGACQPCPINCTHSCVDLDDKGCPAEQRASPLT
T3 sequence (P04626 23-652 limits assumed, one chain of several): as the sequence (P04626 23-652 limits assumed) above
T5 sequence (P04626 23-1255, one chain of several): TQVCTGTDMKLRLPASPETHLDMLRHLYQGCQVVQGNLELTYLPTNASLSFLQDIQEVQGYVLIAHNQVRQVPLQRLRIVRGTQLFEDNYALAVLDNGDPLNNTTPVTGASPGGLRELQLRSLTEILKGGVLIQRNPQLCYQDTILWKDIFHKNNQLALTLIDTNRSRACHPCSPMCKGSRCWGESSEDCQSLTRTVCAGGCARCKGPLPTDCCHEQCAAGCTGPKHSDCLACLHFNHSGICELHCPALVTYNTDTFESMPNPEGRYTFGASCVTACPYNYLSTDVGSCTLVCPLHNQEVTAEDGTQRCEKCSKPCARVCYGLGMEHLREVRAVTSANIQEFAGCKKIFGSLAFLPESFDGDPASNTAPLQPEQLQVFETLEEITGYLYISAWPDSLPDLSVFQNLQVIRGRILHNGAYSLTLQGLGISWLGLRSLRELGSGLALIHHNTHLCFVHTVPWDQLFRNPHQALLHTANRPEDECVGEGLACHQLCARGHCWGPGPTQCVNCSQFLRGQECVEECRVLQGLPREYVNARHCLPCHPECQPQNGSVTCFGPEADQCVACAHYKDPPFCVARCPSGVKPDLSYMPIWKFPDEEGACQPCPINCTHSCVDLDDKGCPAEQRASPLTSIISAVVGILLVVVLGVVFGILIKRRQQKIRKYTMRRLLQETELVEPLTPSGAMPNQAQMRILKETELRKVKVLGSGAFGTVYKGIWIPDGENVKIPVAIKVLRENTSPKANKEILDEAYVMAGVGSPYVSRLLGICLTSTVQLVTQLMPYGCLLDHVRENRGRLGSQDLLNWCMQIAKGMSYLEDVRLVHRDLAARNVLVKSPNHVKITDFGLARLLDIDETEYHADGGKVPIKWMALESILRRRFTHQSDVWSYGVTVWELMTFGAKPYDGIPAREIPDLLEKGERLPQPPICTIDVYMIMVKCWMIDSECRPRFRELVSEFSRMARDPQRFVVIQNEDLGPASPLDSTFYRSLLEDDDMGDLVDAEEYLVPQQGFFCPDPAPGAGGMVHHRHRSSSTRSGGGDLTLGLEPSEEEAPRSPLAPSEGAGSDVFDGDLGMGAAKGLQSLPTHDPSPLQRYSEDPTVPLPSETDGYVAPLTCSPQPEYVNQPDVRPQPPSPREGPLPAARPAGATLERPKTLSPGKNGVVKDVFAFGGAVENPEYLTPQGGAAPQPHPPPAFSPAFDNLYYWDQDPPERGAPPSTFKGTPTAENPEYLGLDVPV

As to `C[C@@H]1NC(=O)CNC(=O)[C@H](CCC(=O)O)NC(=O)[C@H](CCC(=O)O)NC(=O)[C@H](CC(=O)O)NC(=O)[C@@H]2CCCN2C(=O)[C@H](Cc2ccccc2)NC(=O)[C@@H](NC(=O)[C@@H](N)Cc2ccc(O)cc2)CSSC[C@@H](C(=O)N[C@@H](Cc2ccc(O)cc2)C(N)=O)NC1=O` [B2-S22-AFA, YCFPDEEGACY] (H-YCFPDEEGACY-NH2; disulfide 2-10), the “Percent Inhibition ErbB3” value in test [1] was 61.7%. Besides, the Kd in test [2] was 0.302 µM; in test [4] it was 0.429 µM; in test [6] it was 0.407 µM. For the same compound, the “Percent Inhibition ErbB2” value in test [3] is recorded as 82.5%. In test [5], the IC50 was 0.8 µM. Besides, the “Percent Inhibition ErbB1” value in test [7] amounted to 78.4%.
